Laboratory results taken from patent US20260356841A1, “HETEROCYCLIC PYRIDINONE COMPOUNDS AS TRIGGERING RECEPTOR EXPRESSED ON MYELOID CELLS 2 AGONISTS AND METHODS OF USE” (Vigil Neuroscience, Inc., priority 2023, published 2026).

Target: T1, human TREM2 (Homo sapiens, UniProt Q9NZC2)
T1 construct: expressed in transfected cells; host or cells: HEK293T (HEK293T-hTREM2 cells)
Assay: TREM2 agonist potency by cellular phosphorylation of Spleen Tyrosine Kinase (Syk), AlphaLisa, HEK293T-hTREM2 cells
Assay type: cell-based
Settings: not given
Summary of the method: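 HEK293T cells co-expressing human TREM2 and DAP12, plated 20–24 h before use. Compounds applied 45 min at room temperature in assay buffer, then cells lysed and phospho-Syk quantified by AlphaLisa. Percent activation from a standard curve; EC50 from a four-parameter variable-slope fit.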

T1 sequence (Q9NZC2 19-230): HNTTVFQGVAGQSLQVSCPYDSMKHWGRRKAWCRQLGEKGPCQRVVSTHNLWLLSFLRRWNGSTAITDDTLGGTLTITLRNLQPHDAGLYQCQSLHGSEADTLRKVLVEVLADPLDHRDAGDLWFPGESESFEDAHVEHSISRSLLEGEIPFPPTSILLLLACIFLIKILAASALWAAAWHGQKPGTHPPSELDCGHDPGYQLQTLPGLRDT
T1 sequence (O43914 22-113 partner): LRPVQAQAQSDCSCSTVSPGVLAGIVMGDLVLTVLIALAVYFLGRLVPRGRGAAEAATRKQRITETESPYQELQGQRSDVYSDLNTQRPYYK

| EC50 | SMILES |
| --- | --- |
| < 100 nM | Cc1nc2nc(N3C[C@@H](C)O[C@@H](c4ccc(=O)n(C)c4)C3)nc(C34CC(C(F)(F)F)(C3)C4)c2nc1C(F)F [Example 180, 5-[(2S,6R)-4-[6-(difluoromethyl)-7-methyl-4-[3-(trifluoromethyl)-1-bicyclo[1.1.1]pentanyl]pteridin-2-yl]-6-methyl-morpholin-2-yl]-1-methyl-pyridin-2-one] |
| < 100 nM | Cc1nc2cc(N3C[C@@H](C)O[C@@H](c4ccc(=O)n(C)c4)C3)nc(-c3ccc(F)cc3F)c2nc1C [Example 191, 5-((2S,6R)-4-(5-(2,4-difluorophenyl)-2,3-dimethylpyrido[3,4-b]pyrazin-7-yl)-6-methylmorpholin-2-yl)-1-methylpyridin-2 (1H)-one] |
| < 100 nM | Cc1cc2c(-c3ccc(F)cc3F)nc(N3C[C@@H](C)O[C@@H](c4ccc(=O)n(C)c4)C3)cc2nc1C [Example 196, 5-((2S,6R)-4-(5-(2,4-difluorophenyl)-2,3-dimethyl-1,6-naphthyridin-7-yl)-6-methylmorpholin-2-yl)-1-methylpyridin-2 (1H)-one] |

Same assay, conditions: hTREM2 EC50 Data (HEK293 Cells); Syk phosphorylation, AlphaLisa; read-out: hTREM2 EC50

| EC50 | SMILES |
| --- | --- |
| < 100 nM | CNn1cc([C@H]2CN(c3nc(-c4ccc(F)cc4F)c4sc(N(C)C)nc4n3)C[C@@H](C)O2)ccc1=O [Example 175, 5-[(2S,6R)-4-[7-(2,4-difluorophenyl)-2-(dimethylamino)thiazolo[4,5-d]pyrimidin-5-yl]-6-methyl-morpholin-2-yl]-1-(methylamino)pyridin-2-one] |
| < 100 nM | C[C@@H]1CN(c2nc(-c3ccc(F)cc3F)c3sc(N(C)C)nc3n2)C[C@H](c2ccc(=O)n(C)c2)O1 [Example 176, 5-[(2S,6R)-4-[7-(2,4-difluorophenyl)-2-(dimethylamino)thiazolo[4,5-d]pyrimidin-5-yl]-6-methyl-morpholin-2-yl]-1-methyl-pyridin-2-one] |
| < 100 nM | Cc1nc2nc([C@H]3CCO[C@@H](c4ccc(=O)n(N(C)C)c4)C3)nc(C34CC(C(F)(F)F)(C3)C4)c2nc1C [Example 178, 1-(dimethylamino)-5-[(2R,4S)-4-[6,7-dimethyl-4-[3-(trifluoromethyl)-1-bicyclo[1.1.1]pentanyl]pteridin-2-yl]tetrahydropyran-2-yl]pyridin-2-one] |
| < 100 nM | CNn1cc([C@H]2C[C@@H](c3nc(C45CC(C(F)(F)F)(C4)C5)c4nc(C)c(C)nc4n3)CCO2)ccc1=O [Example 179, 5-[(2R,4S)-4-[6,7-dimethyl-4-[3-(trifluoromethyl)-1-bicyclo[1.1.1]pentanyl]pteridin-2-yl]tetrahydropyran-2-yl]-1-(methylamino)pyridin-2-one] |
| < 100 nM | CCNn1cc([C@H]2C[C@@H](c3nc(C45CC(C(F)(F)F)(C4)C5)c4nc(C)c(C)nc4n3)CCO2)ccc1=O [Example 181, 5-[(2R,4S)-4-[6,7-dimethyl-4-[3-(trifluoromethyl)-1-bicyclo[1.1.1]pentanyl]pteridin-2-yl]tetrahydropyran-2-yl]-1-(ethylamino)pyridin-2-one] |
| < 100 nM | [2H]C([2H])([2H])c1nc2nc(N3C[C@@H](C)O[C@@H](c4ccc(=O)n(C5CC5)c4)C3)nc(C34CC(C(F)(F)F)(C3)C4)c2nc1C([2H])([2H])[2H] [Example 182, 5-[(2S,6R)-4-[6,7-bis(methyl-d3)-4-[3-(trifluoromethyl)-1-bicyclo[1.1.1]pentan-1-yl]pteridin-2-yl]-6-methyl-morpholin-2-yl]-1-cyclopropylpyridin-2(1H)-one] |
| < 100 nM | Cc1nc2nc(N3C[C@@H](C)O[C@@H](c4ccc(=O)n(C5CC5)c4)C3)nc(C34CC(C(F)(F)F)(C3)C4)c2nc1C1COC1 [Example 183, 1-cyclopropyl-5-((2S,6R)-6-methyl-4-(7-methyl-6-(oxetan-3-yl)-4-(3-(trifluoromethyl)bicyclo[1.1.1]pentan-1-yl)pteridin-2-yl)morpholin-2-yl)pyridin-2(1H)-one] |
| < 100 nM | Cc1nc2nc(N3C[C@@H](C)O[C@@H](c4ccc(=O)n(N)c4)C3)nc(C34CC(C(F)(F)F)(C3)C4)c2nc1C [Example 184, 1-amino-5-[(2S,6R)-4-[6,7-dimethyl-4-[3-(trifluoromethyl)-1-bicyclo[1.1.1]pentanyl]pteridin-2-yl]-6-methyl-morpholin-2-yl]pyridin-2-one] |
| 100 to 500 nM | Cc1nc2nc(N3C[C@@H](C)O[C@@H](c4ccc(=O)n(N)c4)C3)nc(C34CC(C(F)(F)F)(C3)C4)c2nc1C1COC1 [Example 185, 1-amino-5-[(2S,6R)-6-methyl-4-[7-methyl-6-(oxetan-3-yl)-4-[3-(trifluoromethyl)-1-bicyclo[1.1.1]pentanyl]pteridin-2-yl]morpholin-2-yl]pyridin-2-one] |
| 100 to 500 nM | Cc1nc2cc(N3C[C@@H](C)O[C@@H](c4ccc(=O)[nH]c4)C3)nc(-c3ccc(F)cc3F)c2nc1C [Example 186, 5-((2S,6R)-4-(5-(2,4-difluorophenyl)-2,3-dimethylpyrido[3,4-b]pyrazin-7-yl)-6-methylmorpholin-2-yl)pyridin-2(1H)-one] |
| 100 to 500 nM | Cc1cnc2c(C34CC(C(F)(F)F)(C3)C4)nc([C@H]3CCO[C@@H](c4ccc(=O)[nH]c4)C3)nc2n1 [Example 187, 5-((2R,4S)-4-(7-methyl-4-(3-(trifluoromethyl)bicyclo[1.1.1]pentan-1-yl)pteridin-2-yl)tetrahydro-2H-pyran-2-yl)pyridin-2(1H)-one] |
| > 500 nM | CN(C)c1nc2c(C34CC(C(F)(F)F)(C3)C4)nc([C@H]3CCO[C@@H](c4ccc(=O)n(C)c4)C3)nc2n1C [Example 188] |
| < 100 nM | Cc1nc2nc(N3CCC(F)(F)C(c4ccc(=O)[nH]c4)C3)nc(-c3ccc(F)cc3F)c2nc1C (stereo not drawn) [Example 189, 5-[1-[4-(2,4-difluorophenyl)-6,7-dimethyl-pteridin-2-yl]-4,4-difluoro-3-piperidyl]-1H-pyridin-2-one] |
| < 100 nM | Cc1nc2nc(N3CCC(F)(F)C(c4ccc(=O)n(C)c4)C3)nc(-c3ccc(F)cc3F)c2nc1C (stereo not drawn) [Example 190, 5-[1-[4-(2,4-difluorophenyl)-6,7-dimethyl-pteridin-2-yl]-4,4-difluoro-3-piperidyl]-1-methyl-pyridin-2-one] |
| 100 to 500 nM | Cc1cc2c(-c3ccc(F)cc3F)nc(N3C[C@@H](C)O[C@@H](c4ccc(=O)[nH]c4)C3)cc2nc1C [Example 192, 5-((2S,6R)-4-(5-(2,4-difluorophenyl)-2,3-dimethyl-1,6-naphthyridin-7-yl)-6-methylmorpholin-2-yl)pyridin-2(1H)-one] |
| < 100 nM | Cc1cc2c(-c3ccc(F)cc3F)nc(N3C[C@@H](C)O[C@@H](c4ccc(=O)n(N)c4)C3)cc2nc1C [Example 193, 1-amino-5-[(2S,6R)-4-[5-(2,4-difluorophenyl)-2,3-dimethyl-1,6-naphthyridin-7-yl]-6-methyl-morpholin-2-yl]pyridin-2-one] |
| 100 to 500 nM | Cc1nc2cc(C3CCO[C@@H](c4ccc(=O)n(C)c4)C3)nc(-c3ccc(F)cc3F)c2nc1C (stereo partly drawn) [Example 194, 5-(4-(5-(2,4-difluorophenyl)-2,3-dimethylpyrido[3,4-b]pyrazin-7-yl)tetrahydro-2H-pyran-2-yl)-1-methylpyridin-2 (1H)-one] |
| < 100 nM | Cc1nc2nc(N3C[C@@H](C)O[C@@H](c4ccc(=O)[nH]c4)C3)nc(C34CC(C(F)(F)F)(C3)C4)c2nc1C1COC1 [Example 195, 5-[(2S,6R)-6-methyl-4-[7-methyl-6-(oxetan-3-yl)-4-[3-(trifluoromethyl)-1-bicyclo[1.1.1]pentanyl]pteridin-2-yl]morpholin-2-yl]-1H-pyridin-2-one] |
| 100 to 500 nM | Cc1cnc2nc([C@H]3CCO[C@@H](c4ccc(=O)[nH]c4)C3)nc(C34CC(C(F)(F)F)(C3)C4)c2n1 [Example 197, 5-((2R,4S)-4-(6-methyl-4-(3-(trifluoromethyl)bicyclo[1.1.1]pentan-1-yl)pteridin-2-yl)tetrahydro-2H-pyran-2-yl)pyridin-2(1H)-one] |
| 100 to 500 nM | Cc1cnc2nc([C@H]3CCO[C@@H](c4ccc(=O)n(C)c4)C3)nc(C34CC(C(F)(F)F)(C3)C4)c2n1 [Example 198, 1-methyl-5-((2R,4S)-4-(6-methyl-4-(3-(trifluoromethyl)bicyclo[1.1.1]pentan-1-yl)pteridin-2-yl)tetrahydro-2H-pyran-2-yl)pyridin-2(1H)-one] |
| < 100 nM | [2H]C([2H])([2H])c1nc2nc([C@H]3CCO[C@@H](c4ccc(=O)n(C5CC5)c4)C3)nc(C34CC(C(F)(F)F)(C3)C4)c2nc1C([2H])([2H])[2H] [Example 201, 5-((2R,4S)-4-(6,7-bis(methyl-d3)-4-(3-(trifluoromethyl)bicyclo[1.1.1]pentan-1-yl)pteridin-2-yl)tetrahydro-2H-pyran-2-yl)-1-cyclopropylpyridin-2 (1H)-one] |
| 100 to 500 nM | CN(C)c1nc2nc([C@H]3CCO[C@@H](c4ccc(=O)n(C)c4)C3)nc(C34CC(C(F)(F)F)(C3)C4)c2n1C [Example 202, 5-((2R,4S)-4-(8-(dimethylamino)-7-methyl-6-(3-(trifluoromethyl)bicyclo[1.1.1]pentan-1-yl)-7H-purin-2-yl)tetrahydro-2H-pyran-2-yl)-1-methylpyridin-2 (1H)-one] |
| < 100 nM | COn1cc([C@H]2C[C@@H](c3nc(C45CC(C(F)(F)F)(C4)C5)c4nc(C)c(C)nc4n3)CCO2)ccc1=O [Example 203, 5-[(2R,4S)-4-[6,7-dimethyl-4-[3-(trifluoromethyl)-1-bicyclo[1.1.1]pentanyl]pteridin-2-yl]tetrahydropyran-2-yl]-1-methoxy-pyridin-2-one] |
| > 500 nM | Cc1nc2nc(N3C[C@@H](C)O[C@@H](c4ccc(=O)n(C)c4)C3)nc(C34CC(C(N)=O)(C3)C4)c2nc1C [Example 204, 3-[6,7-dimethyl-2-[(2R,6S)-2-methyl-6-(1-methyl-6-oxo-3-pyridyl)morpholin-4-yl]pteridin-4-yl]bicyclo[1.1.1]pentane-1-carboxamide] |
